Among the data in patent publication US12503438B2, “Compounds for the treatment of kinase-dependent disorders” (Exelixis, Inc., priority 2019, dated 2025) are IC50 values, retold here.

Test [1] has as its target T1, AXL (Homo sapiens, UniProt P30530).
T1 construct: endogenous in cells; host or cells: A-172 glioblastoma cells (ATCC #CRL-1620)
T1 sequence (P30530 26-894): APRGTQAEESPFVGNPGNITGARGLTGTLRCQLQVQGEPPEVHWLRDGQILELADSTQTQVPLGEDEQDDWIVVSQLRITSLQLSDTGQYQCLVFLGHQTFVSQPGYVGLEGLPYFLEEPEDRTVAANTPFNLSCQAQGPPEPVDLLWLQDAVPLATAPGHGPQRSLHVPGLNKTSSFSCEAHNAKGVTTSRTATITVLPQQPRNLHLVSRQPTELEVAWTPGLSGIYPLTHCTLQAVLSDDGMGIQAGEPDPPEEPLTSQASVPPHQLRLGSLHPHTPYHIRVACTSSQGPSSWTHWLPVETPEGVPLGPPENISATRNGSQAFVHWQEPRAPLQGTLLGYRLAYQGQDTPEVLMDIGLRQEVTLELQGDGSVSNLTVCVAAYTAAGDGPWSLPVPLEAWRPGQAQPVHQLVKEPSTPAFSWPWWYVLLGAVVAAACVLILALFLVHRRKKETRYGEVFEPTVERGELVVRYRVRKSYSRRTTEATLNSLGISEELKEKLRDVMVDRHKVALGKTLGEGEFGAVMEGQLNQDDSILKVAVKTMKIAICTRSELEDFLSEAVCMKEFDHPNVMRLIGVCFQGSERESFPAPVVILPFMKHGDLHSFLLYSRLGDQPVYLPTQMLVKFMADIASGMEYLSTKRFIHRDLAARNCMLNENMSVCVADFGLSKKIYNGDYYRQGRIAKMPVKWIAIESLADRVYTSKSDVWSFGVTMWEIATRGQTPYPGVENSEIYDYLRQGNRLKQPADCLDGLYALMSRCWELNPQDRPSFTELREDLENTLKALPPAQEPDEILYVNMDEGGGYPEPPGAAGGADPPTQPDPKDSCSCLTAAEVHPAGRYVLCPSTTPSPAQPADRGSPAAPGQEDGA
The test can be described thus: AXL autophosphorylation ELISA in A-172 cells. The format is cell-based. The note with it: cellular activity, Gas6-stimulated, phospho-AXL ELISA. In a few lines: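 Serum-starved (24 h) A-172 glioblastoma cells got an 8-point compound series (0.3% DMSO) for 1 h, then 1 μg/mL human Gas6 for 15 min. Lysate phospho-AXL quantified by ELISA against phospho-AXL standard, normalized to DMSO and reference-inhibitor controls; IC50 by 4-parameter logistic fit.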

The target of test [2] is Met (Homo sapiens, UniProt P08581). The test can be described thus: Met autophosphorylation ELISA in PC-3 cells. Particulars: cellular activity, HGF-stimulated, phospho-Met ELISA, read-out: c-Met IC50. It counts as cell-based. Also noted: endogenous in cells; host or cells: PC-3 prostate cancer cells (ATCC #CRL-1435). In a few lines: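 PC-3 cells serum-starved 3 h, treated 1 h with 8-point compound series (0.3% DMSO), then stimulated with 100 ng/mL human HGF for 10 min. Lysate phospho-Met (panTyr) measured by sandwich ELISA; IC50 from 4-parameter logistic fit against DMSO and reference-inhibitor controls.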
Chain of Met (P08581 25-1390): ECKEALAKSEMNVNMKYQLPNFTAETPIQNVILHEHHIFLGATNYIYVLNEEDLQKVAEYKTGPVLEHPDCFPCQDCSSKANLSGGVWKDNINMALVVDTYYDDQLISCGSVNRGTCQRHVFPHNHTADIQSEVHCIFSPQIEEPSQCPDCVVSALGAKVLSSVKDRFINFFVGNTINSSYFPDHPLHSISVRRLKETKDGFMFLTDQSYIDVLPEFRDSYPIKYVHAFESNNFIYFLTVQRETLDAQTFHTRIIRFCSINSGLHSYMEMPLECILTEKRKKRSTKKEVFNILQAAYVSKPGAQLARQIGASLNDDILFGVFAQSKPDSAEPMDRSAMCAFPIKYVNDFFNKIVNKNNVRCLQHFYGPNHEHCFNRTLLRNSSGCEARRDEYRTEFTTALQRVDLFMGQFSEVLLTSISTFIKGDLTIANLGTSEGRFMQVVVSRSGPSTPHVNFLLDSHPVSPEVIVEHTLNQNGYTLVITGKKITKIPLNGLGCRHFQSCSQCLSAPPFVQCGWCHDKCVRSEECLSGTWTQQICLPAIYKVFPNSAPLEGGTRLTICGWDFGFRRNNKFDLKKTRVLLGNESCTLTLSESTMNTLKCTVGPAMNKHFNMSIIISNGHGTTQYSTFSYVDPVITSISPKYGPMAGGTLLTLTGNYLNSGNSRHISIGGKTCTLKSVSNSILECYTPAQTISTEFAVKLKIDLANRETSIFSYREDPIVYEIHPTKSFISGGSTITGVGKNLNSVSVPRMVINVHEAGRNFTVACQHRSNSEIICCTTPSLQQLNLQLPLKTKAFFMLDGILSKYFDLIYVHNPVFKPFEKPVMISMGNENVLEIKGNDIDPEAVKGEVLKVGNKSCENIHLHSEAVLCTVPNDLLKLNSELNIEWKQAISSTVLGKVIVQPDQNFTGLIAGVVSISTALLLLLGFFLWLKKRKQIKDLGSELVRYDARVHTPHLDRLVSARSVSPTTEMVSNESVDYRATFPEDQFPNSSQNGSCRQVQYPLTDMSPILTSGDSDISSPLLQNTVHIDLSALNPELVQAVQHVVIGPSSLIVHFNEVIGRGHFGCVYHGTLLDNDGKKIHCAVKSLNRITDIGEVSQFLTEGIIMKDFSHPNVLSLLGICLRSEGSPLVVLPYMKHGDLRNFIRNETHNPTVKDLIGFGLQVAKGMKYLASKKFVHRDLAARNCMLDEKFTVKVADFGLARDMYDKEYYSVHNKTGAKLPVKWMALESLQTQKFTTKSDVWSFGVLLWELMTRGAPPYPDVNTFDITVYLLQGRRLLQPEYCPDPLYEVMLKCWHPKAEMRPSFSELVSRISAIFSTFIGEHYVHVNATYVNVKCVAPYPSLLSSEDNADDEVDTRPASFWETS

For `O=C(Nc1ccc(F)cc1)C1(C(=O)Nc2ccc(Oc3ccnc4cc(-c5cnn(CCF)c5)ccc34)cc2)CC1` [Compound 14, 1-N-[4-[7-[1-(2-Fluoroethyl)pyrazol-4-yl]quinolin-4-yl]oxyphenyl]-1-N′-(4-fluorophenyl)cyclopropane-1,1-dicarboxamide], the IC50 in test [1] and in test [2] was at most 10 nM throughout.

In the case of `O=C(Nc1ccc(F)cc1)C1(C(=O)Nc2ccc(Oc3ccnc4cc(-c5cccnc5)ccc34)c(F)c2)CC1` [Compound 113, 1-N-(4-Fluorophenyl)-1-N′-[3-fluoro-4-(7-pyridin-3-ylquinolin-4-yl)oxyphenyl]cyclopropane-1,1-dicarboxamide], the IC50 in test [1] and in test [2] was 10 to 100 nM throughout.

Regarding `O=C(Nc1ccc(F)cc1)C1(C(=O)Nc2ccc(Oc3ccnc4cc(-c5ccn[nH]5)ccc34)cc2)CC1` [Compound 68, 1-N′-(4-Fluorophenyl)-1-N-[4-[7-(1H-pyrazol-5-yl)quinolin-4-yl]oxyphenyl]cyclopropane-1,1-dicarboxamide], the IC50 is at most 10 nM in test [1] and 10 to 100 nM in test [2].

For `COc1cc2c(Oc3ccc(NC(=O)C4(C(=O)Nc5ccc(F)cc5)CC4)cc3)ccnc2cc1-c1cnn(C)c1` [Compound 76, 1-N′-(4-Fluorophenyl)-1-N-[4-[6-methoxy-7-(1-methylpyrazol-4-yl)quinolin-4-yl]oxyphenyl]cyclopropane-1,1-dicarboxamide], the 50% inhibitory concentration (IC50) in test [1] is at most 10 nM; in test [2] it was 10 to 100 nM.

With `O=C(Nc1ccc(F)cc1)C1(C(=O)Nc2ccc(Oc3ccnc4cc(-c5ccncc5)ccc34)cc2)CC1` [Compound 26, 1-N′-(4-Fluorophenyl)-1-N-[4-(7-pyridin-4-ylquinolin-4-yl)oxyphenyl]cyclopropane-1,1-dicarboxamide], the IC50 in test [1] and in test [2] was at most 10 nM each time.

For the molecule `O=C(Nc1ccc(F)cc1)C1(C(=O)Nc2ccc(Oc3ccnc4cc(-c5cnoc5)ccc34)cc2)CC1` [Compound 57, 1-N′-(4-Fluorophenyl)-1-N-[4-[7-(1,2-oxazol-4-yl)quinolin-4-yl]oxyphenyl]cyclopropane-1,1-dicarboxamide], the IC50 in test [1] is at most 10 nM; in test [2], 10 to 100 nM.

Regarding `O=C(Nc1ccc(F)cc1)C1(C(=O)Nc2ccc(Oc3ccnc4cc(-c5cn[nH]c5)ccc34)cc2)CC1` [Compound 67, 1-N′-(4-Fluorophenyl)-1-N-[4-[7-(1H-pyrazol-4-yl)quinolin-4-yl]oxyphenyl]cyclopropane-1,1-dicarboxamide], the IC50 in test [1] and in test [2] was at most 10 nM in each case.

With `Nc1ccc(-c2ccc3c(Oc4ccc(NC(=O)C5(C(=O)Nc6ccc(F)cc6)CC5)cc4)ccnc3c2)cn1` [Compound 38, 1-N-[4-[7-(6-Aminopyridin-3-yl)quinolin-4-yl]oxyphenyl]-1-N′-(4-fluorophenyl)cyclopropane-1,1-dicarboxamide], the IC50 in test [1] and in test [2] was 10 to 100 nM in each case.

For the molecule `O=C(Nc1ccc(F)cc1)C1(C(=O)Nc2ccc(Oc3ccnc4cc(-c5cnn(C(F)(F)F)c5)ccc34)cc2)CC1` [Compound 12, 1-N′-(4-Fluorophenyl)-1-N-[4-[7-[1-(trifluoromethyl)pyrazol-4-yl]quinolin-4-yl]oxyphenyl]cyclopropane-1,1-dicarboxamide], the 50% inhibitory concentration (IC50) in test [1] and in test [2] was 10 to 100 nM in each case.

As for `COc1cncc(-c2ccc3c(Oc4ccc(NC(=O)C5(C(=O)Nc6ccc(F)cc6)CC5)cc4)ccnc3c2)c1` [Compound 47, 1-N′-(4-Fluorophenyl)-1-N-[4-[7-(5-methoxypyridin-3-yl)quinolin-4-yl]oxyphenyl]cyclopropane-1,1-dicarboxamide], the IC50 fell in the range of 10 to 100 nM in test [1] and 100 to 300 nM in test [2].

As for `CS(=O)(=O)n1cc(-c2ccc3c(Oc4ccc(NC(=O)C5(C(=O)Nc6ccc(F)cc6)CC5)cc4)ccnc3c2)cn1` [Compound 79, 1-N′-(4-Fluorophenyl)-1-N-[4-[7-(1-methylsulfonylpyrazol-4-yl)quinolin-4-yl]oxyphenyl]cyclopropane-1,1-dicarboxamide], the results for the IC50 in test [1] and in test [2] were at most 10 nM and 10 to 100 nM, respectively.

Turning to `Cn1nccc1-c1ccc2c(Oc3ccc(NC(=O)C4(C(=O)Nc5ccc(F)cc5)CC4)cc3)ccnc2c1` [Compound 54, 1-N′-(4-Fluorophenyl)-1-N-[4-[7-(2-methylpyrazol-3-yl)quinolin-4-yl]oxyphenyl]cyclopropane-1,1-dicarboxamide], the IC50 in test [1] and in test [2] was 10 to 100 nM each time.

Take `Cc1cc2c(Oc3ccc(NC(=O)C4(C(=O)Nc5ccc(F)cc5)CC4)cc3F)ccnc2cc1-c1ncc[nH]1` [Compound 122, 1-N′-[3-Fluoro-4-[7-(1H-imidazol-2-yl)-6-methylquinolin-4-yl]oxyphenyl]-1-N-(4-fluorophenyl)cyclopropane-1,1-dicarboxamide]: the IC50 in test [1] and in test [2] was 10 to 100 nM in each case.

As to `O=C(Nc1ccc(F)cc1)C1(C(=O)Nc2ccc(Oc3ccnc4cc(-c5ccc(O)nc5)ccc34)cc2)CC1` [Compound 51, 1-N′-(4-Fluorophenyl)-1-N-[4-[7-(6-hydroxypyridin-3-yl)quinolin-4-yl]oxyphenyl]cyclopropane-1,1-dicarboxamide], the IC50 in test [1] and in test [2] was at most 10 nM in each case.

Regarding `O=C(Nc1ccc(F)cc1)C1(C(=O)Nc2ccc(Oc3ccnc4cc(-c5ccnc(F)c5)ccc34)cc2)CC1` [Compound 33, 1-N′-(4-Fluorophenyl)-1-N-[4-[7-(2-fluoropyridin-4-yl)quinolin-4-yl]oxyphenyl]cyclopropane-1,1-dicarboxamide], the concentration for half-maximal inhibition (IC50) in test [1] and in test [2] was 10 to 100 nM in each case.

On to `Cn1cc(-c2ccc3c(Oc4ccc(NC(=O)C5(C(=O)Nc6ccc(F)cc6)CC5)cc4)ccnc3c2)ccc1=O` [Compound 119, 1-N′-(4-Fluorophenyl)-1-N-[4-[7-(1-methyl-6-oxopyridin-3-yl)quinolin-4-yl]oxyphenyl]cyclopropane-1,1-dicarboxamide], for which the IC50 in test [1] was at most 10 nM; in test [2], 10 to 100 nM.

Regarding `N#Cc1cc(-c2ccc3c(Oc4ccc(NC(=O)C5(C(=O)Nc6ccc(F)cc6)CC5)cc4)ccnc3c2)ccn1` [Compound 34, 1-N-[4-[7-(2-Cyanopyridin-4-yl)quinolin-4-yl]oxyphenyl]-1-N′-(4-fluorophenyl)cyclopropane-1,1-dicarboxamide], the IC50 in test [1] and in test [2] was 10 to 100 nM throughout.

Turning to `O=C(Nc1ccc(F)cc1)C1(C(=O)Nc2ccc(Oc3ccnc4cc(C5CCNC5)ccc34)cc2)CC1` (centres unmarked) [Compound 83, 1-N′-(4-Fluorophenyl)-1-N-[4-(7-pyrrolidin-3-ylquinolin-4-yl)oxyphenyl]cyclopropane-1,1-dicarboxamide], the IC50 in test [1] fell in the range of 100 to 300 nM; in test [2], 10 to 100 nM.

As for `CC(C)(C)n1cc(-c2ccc3c(Oc4ccc(NC(=O)C5(C(=O)Nc6ccc(F)cc6)CC5)cc4)ccnc3c2)cn1` [Compound 23, 1-N-[4-[7-(1-tert-Butylpyrazol-4-yl)quinolin-4-yl]oxyphenyl]-1-N′-(4-fluorophenyl)cyclopropane-1,1-dicarboxamide], the IC50 in test [1] and in test [2] was 10 to 100 nM each time.

On to `O=C(Nc1ccc(F)cc1)C1(C(=O)Nc2ccc(Oc3ccnc4cc(-c5nnco5)ccc34)cc2)CC1` [Compound 73, 1-N′-(4-Fluorophenyl)-1-N-[4-[7-(1,3,4-oxadiazol-2-yl)quinolin-4-yl]oxyphenyl]cyclopropane-1,1-dicarboxamide], for which the IC50 in test [1] and in test [2] was 10 to 100 nM each time.

Turning to `O=C(Nc1ccc(F)cc1)C1(C(=O)Nc2ccc(Oc3ccnc4cc(-c5ncc[nH]5)ccc34)cc2)CC1` [Compound 74, 1-N′-(4-Fluorophenyl)-1-N-[4-[7-(1H-imidazol-2-yl)quinolin-4-yl]oxyphenyl]cyclopropane-1,1-dicarboxamide], the IC50 in test [1] was 10 to 100 nM; in test [2], at most 10 nM.

Take `Cn1ccc(-c2ccc3c(Oc4ccc(NC(=O)C5(C(=O)Nc6ccc(F)cc6)CC5)cc4)ccnc3c2)n1` [Compound 17, 1-N′-(4-Fluorophenyl)-1-N-[4-[7-(1-methylpyrazol-3-yl)quinolin-4-yl]oxyphenyl]cyclopropane-1,1-dicarboxamide]: the IC50 in test [1] and in test [2] was 10 to 100 nM each time.
